In PubChem BioAssay AID1963967 (Molecular Pharmacology Branch, DTP, NCI, 2024):

System: 855422-203-R-J1-PDC spheroids with HUVEC/MSC, viability
Test: Anticancer human tumor 855422-203-R-J1-PDC patient-derived bladder carcinoma cell line growth inhibition [PI3K]
Details: for IC50: curve of first compound; for viability, T/C: stronger effect = lower value
How it was run: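 Combination activity was assessed by viability in multicellular tumor spheroids carrying HUVEC and MSC components. Agents were tested with PI3K inhibitors from a Cmax-based top dose (or 10 microM) downward in half-log increments.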

[1] = second compound 0.00316 µM, first compound 0.0316 µM
[2] = second compound 0.00316 µM, first compound 0.1 µM
[3] = second compound 0.00316 µM, first compound 0.316 µM
[4] = second compound 0.00316 µM, first compound 1 µM
[5] = second compound 0.00316 µM, first compound 3.16 µM
[6] = second compound 0.00316 µM, first compound 10 µM
[7] = second compound 0.01 µM, first compound 0.0316 µM
[8] = second compound 0.01 µM, first compound 0.1 µM
[9] = second compound 0.01 µM, first compound 0.316 µM
[10] = second compound 0.01 µM, first compound 1 µM
[11] = second compound 0.01 µM, first compound 3.16 µM
[12] = second compound 0.01 µM, first compound 10 µM
[13] = second compound 0.0316 µM, first compound 0.0316 µM
[14] = second compound 0.0316 µM, first compound 0.1 µM
[15] = second compound 0.0316 µM, first compound 0.316 µM
[16] = second compound 0.0316 µM, first compound 1 µM
[17] = second compound 0.0316 µM, first compound 3.16 µM
[18] = second compound 0.0316 µM, first compound 10 µM
[19] = second compound 0.1 µM, first compound 0.0316 µM
[20] = second compound 0.1 µM, first compound 0.1 µM
[21] = second compound 0.1 µM, first compound 0.316 µM
[22] = second compound 0.1 µM, first compound 1 µM
[23] = second compound 0.1 µM, first compound 3.16 µM
[24] = second compound 0.1 µM, first compound 10 µM
[25] = second compound 0.316 µM, first compound 0.0316 µM
[26] = second compound 0.316 µM, first compound 0.1 µM
[27] = second compound 0.316 µM, first compound 0.316 µM
[28] = second compound 0.316 µM, first compound 1 µM
[29] = second compound 0.316 µM, first compound 3.16 µM
[30] = second compound 0.316 µM, first compound 10 µM
[31] = second compound 1 µM, first compound 0.0316 µM
[32] = second compound 1 µM, first compound 0.1 µM
[33] = second compound 1 µM, first compound 0.316 µM
[34] = second compound 1 µM, first compound 1 µM
[35] = second compound 1 µM, first compound 3.16 µM
[36] = second compound 1 µM, first compound 10 µM
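Note: agents incubated with spheroids for one week before read-out.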
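Throughout, for viability, T/C: 100% = DMSO vehicle-treated control wells.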

CC1(C)CCC(CN2CCN(c3ccc(C(=O)NS(=O)(=O)c4ccc(NCC5CCOCC5)c([N+](=O)[O-])c4)c(Oc4cnc5[nH]ccc5c4)c3)CC2)=C(c2ccc(Cl)cc2)C1 + CC(Nc1ccc2c(c1)OCCn1cc(N3C(=O)OCC3C(F)F)nc1-2)C(N)=O
IC50 (second compound 0.00316 µM): 4.62 µM | IC50 (second compound 0.01 µM): 4.48 µM | IC50 (second compound 0.0316 µM): 4.75 µM | IC50 (second compound 0.1 µM): 4.65 µM | IC50 (second compound 0.316 µM): 1.93 µM | IC50 (second compound 1 µM): < 0.0316 µM | viability, T/C [1]: 96.5% | viability, T/C [2]: 88.1% | viability, T/C [3]: 116% | viability, T/C [4]: 89.8% | viability, T/C [5]: 74% | viability, T/C [6]: 1.86% | viability, T/C [7]: 85.4% | viability, T/C [8]: 77.2% | viability, T/C [9]: 95.1% | viability, T/C [10]: 96.9% | viability, T/C [11]: 71% | viability, T/C [12]: 1.5% | viability, T/C [13]: 86.2% | viability, T/C [14]: 82% | viability, T/C [15]: 98.2% | viability, T/C [16]: 86% | viability, T/C [17]: 75.8% | viability, T/C [18]: 2.64% | viability, T/C [19]: 68.3% | viability, T/C [20]: 70.7% | viability, T/C [21]: 84.6% | viability, T/C [22]: 72.1% | viability, T/C [23]: 74.5% | viability, T/C [24]: 2.65% | viability, T/C [25]: 55.8% | viability, T/C [26]: 55.2% | viability, T/C [27]: 53.7% | viability, T/C [28]: 54.4% | viability, T/C [29]: 46.8% | viability, T/C [30]: 1.04% | viability, T/C [31]: 36.3% | viability, T/C [32]: 35.2% | viability, T/C [33]: 36.8% | viability, T/C [34]: 34.2% | viability, T/C [35]: 35% | viability, T/C [36]: 1.55%

CC(Cn1ccc(-c2ccc(C#N)c(Cl)c2)n1)NC(=O)c1cc(C(C)O)[nH]n1 (stereo not drawn) + CC(Nc1ncnc2nc[nH]c12)c1cc2cccc(Cl)c2c(=O)n1-c1ccccc1
IC50 (second compound 0.0316 µM): > 10 µM | IC50 (second compound 0.1 µM): > 10 µM | IC50 (second compound 0.316 µM): > 10 µM | IC50 (second compound 1 µM): > 10 µM | IC50 (second compound 3.16 µM): > 10 µM | IC50 (second compound 10 µM): > 10 µM | viability, T/C [13]: 105% | viability, T/C [14]: 93.3% | viability, T/C [15]: 113% | viability, T/C [16]: 98.3% | viability, T/C [17]: 91.6% | viability, T/C [18]: 67.8% | viability, T/C [19]: 105% | viability, T/C [20]: 107% | viability, T/C [21]: 106% | viability, T/C [22]: 105% | viability, T/C [23]: 90.3% | viability, T/C [24]: 82.8% | viability, T/C [25]: 97% | viability, T/C [26]: 104% | viability, T/C [27]: 96.6% | viability, T/C [28]: 112% | viability, T/C [29]: 89.9% | viability, T/C [30]: 77.4% | viability, T/C [31]: 92.9% | viability, T/C [32]: 108% | viability, T/C [33]: 107% | viability, T/C [34]: 103% | viability, T/C [35]: 95.5% | viability, T/C [36]: 95.7% | viability, T/C (second compound 3.16 µM, first compound 0.0316 µM): 97.3% | viability, T/C (second compound 3.16 µM, first compound 0.1 µM): 91.1% | viability, T/C (second compound 3.16 µM, first compound 0.316 µM): 108% | viability, T/C (second compound 3.16 µM, first compound 1 µM): 101% | viability, T/C (second compound 3.16 µM, first compound 3.16 µM): 90.4% | viability, T/C (second compound 3.16 µM, first compound 10 µM): 78.7% | viability, T/C (second compound 10 µM, first compound 0.0316 µM): 88.5% | viability, T/C (second compound 10 µM, first compound 0.1 µM): 84.9% | viability, T/C (second compound 10 µM, first compound 0.316 µM): 89.5% | viability, T/C (second compound 10 µM, first compound 1 µM): 82.3% | viability, T/C (second compound 10 µM, first compound 3.16 µM): 74.5% | viability, T/C (second compound 10 µM, first compound 10 µM): 70%

CCCS(=O)(=O)Nc1ccc(F)c(C(=O)c2c[nH]c3ncc(-c4ccc(Cl)cc4)cc23)c1F + COc1c(OCCCN2CCOCC2)ccc2c3n(c(=NC(=O)c4cnc(N)nc4)nc12)CCN3
IC50 (second compound 0.00316 µM): 4.39 µM | IC50 (second compound 0.01 µM): 4.84 µM | IC50 (second compound 0.0316 µM): 3.06 µM | IC50 (second compound 0.1 µM): < 0.0316 µM | IC50 (second compound 0.316 µM): < 0.0316 µM | IC50 (second compound 1 µM): < 0.0316 µM | viability, T/C [1]: 97.6% | viability, T/C [2]: 83.8% | viability, T/C [3]: 87.2% | viability, T/C [4]: 82.5% | viability, T/C [5]: 71.3% | viability, T/C [6]: 0.07% | viability, T/C [7]: 105% | viability, T/C [8]: 89.5% | viability, T/C [9]: 83% | viability, T/C [10]: 90.6% | viability, T/C [11]: 78.9% | viability, T/C [12]: 0.31% | viability, T/C [13]: 68.2% | viability, T/C [14]: 75.1% | viability, T/C [15]: 78.6% | viability, T/C [16]: 67.1% | viability, T/C [17]: 49.7% | viability, T/C [18]: 0.93% | viability, T/C [19]: 34.5% | viability, T/C [20]: 35.3% | viability, T/C [21]: 34.1% | viability, T/C [22]: 32.4% | viability, T/C [23]: 23.9% | viability, T/C [24]: 1.58% | viability, T/C [25]: 11.9% | viability, T/C [26]: 11.4% | viability, T/C [27]: 11.9% | viability, T/C [28]: 11.8% | viability, T/C [29]: 8.59% | viability, T/C [30]: 0.86% | viability, T/C [31]: 4.83% | viability, T/C [32]: 3.64% | viability, T/C [33]: 4.81% | viability, T/C [34]: 6.51% | viability, T/C [35]: 3.75% | viability, T/C [36]: 2%

Cn1cnc2c(F)c(Nc3ccc(Br)cc3Cl)c(C(=O)NOCCO)cc21 + CC(Nc1ccc2c(c1)OCCn1cc(N3C(=O)OCC3C(F)F)nc1-2)C(N)=O
IC50 (second compound 0.00316 µM): 2.28 µM | IC50 (second compound 0.01 µM): 2.15 µM | IC50 (second compound 0.0316 µM): 1.87 µM | IC50 (second compound 0.1 µM): 0.769 µM | IC50 (second compound 0.316 µM): < 0.00949 µM | IC50 (second compound 1 µM): < 0.00949 µM | viability, T/C (second compound 0.00316 µM, first compound 0.00949 µM): 91.7% | viability, T/C (second compound 0.00316 µM, first compound 0.03 µM): 83.8% | viability, T/C (second compound 0.00316 µM, first compound 0.0949 µM): 104% | viability, T/C (second compound 0.00316 µM, first compound 0.3 µM): 83.2% | viability, T/C (second compound 0.00316 µM, first compound 0.949 µM): 82.5% | viability, T/C (second compound 0.00316 µM, first compound 3 µM): 39.8% | viability, T/C (second compound 0.01 µM, first compound 0.00949 µM): 95.9% | viability, T/C (second compound 0.01 µM, first compound 0.03 µM): 89.1% | viability, T/C (second compound 0.01 µM, first compound 0.0949 µM): 97.7% | viability, T/C (second compound 0.01 µM, first compound 0.3 µM): 81.4% | viability, T/C (second compound 0.01 µM, first compound 0.949 µM): 80.9% | viability, T/C (second compound 0.01 µM, first compound 3 µM): 37.9% | viability, T/C (second compound 0.0316 µM, first compound 0.00949 µM): 81% | viability, T/C (second compound 0.0316 µM, first compound 0.03 µM): 83.4% | viability, T/C (second compound 0.0316 µM, first compound 0.0949 µM): 91.5% | viability, T/C (second compound 0.0316 µM, first compound 0.3 µM): 92.3% | viability, T/C (second compound 0.0316 µM, first compound 0.949 µM): 75% | viability, T/C (second compound 0.0316 µM, first compound 3 µM): 32.6% | viability, T/C (second compound 0.1 µM, first compound 0.00949 µM): 64.9% | viability, T/C (second compound 0.1 µM, first compound 0.03 µM): 67.1% | viability, T/C (second compound 0.1 µM, first compound 0.0949 µM): 67.3% | viability, T/C (second compound 0.1 µM, first compound 0.3 µM): 71.3% | viability, T/C (second compound 0.1 µM, first compound 0.949 µM): 46% | viability, T/C (second compound 0.1 µM, first compound 3 µM): 22.2% | viability, T/C (second compound 0.316 µM, first compound 0.00949 µM): 47.6% | viability, T/C (second compound 0.316 µM, first compound 0.03 µM): 45.7% | viability, T/C (second compound 0.316 µM, first compound 0.0949 µM): 47.3% | viability, T/C (second compound 0.316 µM, first compound 0.3 µM): 38.3% | viability, T/C (second compound 0.316 µM, first compound 0.949 µM): 28.6% | viability, T/C (second compound 0.316 µM, first compound 3 µM): 9.16% | viability, T/C (second compound 1 µM, first compound 0.00949 µM): 30.4% | viability, T/C (second compound 1 µM, first compound 0.03 µM): 28.1% | viability, T/C (second compound 1 µM, first compound 0.0949 µM): 25.3% | viability, T/C (second compound 1 µM, first compound 0.3 µM): 21.3% | viability, T/C (second compound 1 µM, first compound 0.949 µM): 16.1% | viability, T/C (second compound 1 µM, first compound 3 µM): 4.67%
